Experimental data: publication PMC10447463, “Data-mining unveils structure–property–activity correlation of viral infectivity enhancing self-assembling peptides” (Nature Communications, 2023)
Where two headings read alike, the source gives them in different places.

How the values were obtained:
[1] = Turbidity, derived count rate of scattered light; format: physicochemical; conditions: for Count Rate / kcps: derived count rate of scattered light at 633 nm, 173°, from zeta-potential measurement, 0.1 mg/mL in 1 mM KCl after 1 d at 1 mg/mL in PBS, turbidity / microscopic aggregation, mean of triplicate
Description: 4 µL of 1 mg/mL peptide fibrils solution is added to a 20 µL, 50 µM ThT–solution in PBS. The mixture is incubated for 15 min at RT to allow binding of ThT dye with β–sheet rich structures. For reference PBS (4 µL) was added instead of peptide fibril solution. The samples were placed in black UV Star® 384 microliter well–plates (Greiner bio–one). Fluorescence spectra were recorded on an Infinite® M1000 PRO microplate reader (Tecan) at λem = 488 nm upon excitation at λex = 440 nm with 10 nm bandwidths and multiple reads per well (3×3). Measurements were repeated in triplicates and averaged with standard deviation. […] Zeta-Potential. For the determination of the surface charge of aggregated peptides zeta-potential measurements were conducted with a Zetasizer Nano ZS, Malvern Instruments. Unless stated otherwise the peptides were dissolved from DMSO (10 mg/mL) in PBS (pH 7.4) to concentration of 1 mg/mL and incubated for 1d at RT. Just before the measurement the 60 µL of the peptides were further diluted in 600 µL KCl (aq, 1 mM) in a 1 mL disposable folded capillary cells (DTS–1060, Zetasizer Nano series, Malvern). The zeta potential of the peptides was derived from the electrophoretic mobility based on the Smoluchowski formula. All measurements were averaged over two individually performed experiments and conducted in triplicates for each sample. Aggregate analysis. […] Furthermore, fluorescence microscopy was conducted by staining 1 µL preformed fibrils (1 mg/mL) with 9 µL ThT (50 µM). Brightfield microscopy was performed simultaneously to evaluate aggregation also for non ThT-active fibrils. The measurements were performed on a Leica DMi8 microscope with 10x air objective and equipped with a Leica MC170 HD camera with a filter setting λem = 527/30 nm upon excitation at λex = 480/40 nm) and processed with the Leica LASX software. To quantify size and number of microscopic aggregation of particles > 10 µm^2 at least 3 independently measured images were analyzed via the 3D object counter analysis tool of ImageJ, v 1.53f51. Sum–frequency generation. The SFG experiments were carried out with a femtosecond Ti: Sapphire amplified laser system (Spitfire Ace, Spectra–Physics, 800 nm, 40 fs, 1 kHz) with 5 W output power. We used 2 W to pump an optical parametric amplifier (TOPAS, light conversion) with a non–collinear difference frequency generation stage to generate broadband IR pulses. Another 1 W of the laser output passed through an etalon to generate narrowband visible pulses (10 cm^-1). The incident angles of the visible and IR beams were 36° and 41° with respect to the surface normal, respectively. The visible (13 µJ) and IR (5 µJ) pulses were overlapped spatially and temporally at the sample position. Subsequently, the generated SFG pulse was guided into a spectrograph (Acton SP 300i, Princeton Instruments), and detected with an EMCCD (Newton, Andor Technology). To avoid IR absorption of water vapor, we purged N2 for the measurement. All spectra were collected in the ssp (denoting s-, s- and p-polarized SFG, visible and IR, respectively) polarization combination. The spectra were normalized to the non–resonant signal taken from z–cut quartz after subtracting a background spectrum. […]
ways to determine turbidity of samples, this can be via transmittance and via scattering. Transmittance […]
as it is an easy and fast method.10,11 However, transmittance contributes not only from µm-sized aggregates but also nm-sized aggregates such as distinct fibrils, which makes hard to distinguish between fibril formation and micrometer sized aggregation. Although dynamic light scattering is a frequently applied method for determination of particle size, it cannot be conducted in solutions with anisotropic aggregates in micrometer size range, since the Stokes-Einstein relation is only applicable for homogeneous […] spherical particles.12 Further models describing scattering intensity and […]

[2] = format: physicochemical; conditions: for ThT Cat. / ThT-Fluorescence (categorical): ThT-active if fluorescence at least twice the control
Outline: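 Fibrils (1 mg/mL solution) were mixed with 50 µM ThT in PBS for 15 min at RT, and fluorescence was read at λex 440/λem 488 nm against a PBS blank, as a triplicate mean ± SD. Zeta potential came from electrophoretic mobility (Smoluchowski) after 1 d aggregation at 1 mg/mL in PBS pH 7.4, diluted into 1 mM KCl.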

[3] = Log10 of derived count rate of scattered light (turbidity)
[4] = log10 of derived count rate of scattered light (turbidity)
[5] = turbidity, Log10 of derived count rate of scattered light, Figure 3A source data
[6] = ThT fluorescence category, 1 if Rel. ThT >2

## KIKIQIII
[1]; [3]
  Log10 Count Rate: 1.978
[1]
  Count Rate / kcps: 95 kcps
[1]; [4]
  Log10 Count Rate: 1.978
[1]; [5]
  Log10 Count Rate: 1.978
[2]; Fig S10 panel D
  Tht category (> 2 to blank = +): 1 (ThT. Cat is 1, if Rel. ThT >2)
[2]; Fig S10 panel E
  ThT Cat.: 1 (ThT. Cat is 1, if Rel. ThT >2)
[2]; ThT category, 1 if Rel. ThT >2
  ThT Cat,: 1 (ThT. Cat is 1, if Rel. ThT >2)
[2]; [6]
  ThT Cat.: 1 (ThT. Cat is 1, if Rel. ThT >2)
[2]
  ThT Cat. / ThT-Fluorescence (categorical): 1 (ThT. Cat is 1, if Rel. ThT >2)

## KIKIQIRGD
[1]; [3]
  Log10 Count Rate: 2.057
[1]
  Count Rate / kcps: 114 kcps
[1]; [4]
  Log10 Count Rate: 2.057
[1]; [5]
  Log10 Count Rate: 2.057
[2]; Fig S10 panel D
  Tht category (> 2 to blank = +): 1 (ThT. Cat is 1, if Rel. ThT >2)
[2]; FigS12 panel A
  Tht category (> 2 to blank = +): 1 (ThT. Cat is 1, if Rel. ThT >2)
[2]; FigS12 panel B
  ThT Cat,: 1 (ThT. Cat is 1, if Rel. ThT >2)
[2]; ThT category, 1 if Rel. ThT >2
  ThT Cat,: 1 (ThT. Cat is 1, if Rel. ThT >2)
[2]; [6]
  ThT Cat.: 1 (ThT. Cat is 1, if Rel. ThT >2)
[2]
  ThT Cat. / ThT-Fluorescence (categorical): 1 (ThT. Cat is 1, if Rel. ThT >2)

## KIKIQIMQWN
[1]; [3]
  Log10 Count Rate: 3.343
[1]
  Count Rate / kcps: 2203 kcps
[1]; [4]
  Log10 Count Rate: 3.343
[1]; [5]
  Log10 Count Rate: 3.343
[2]; Fig S10 panel D
  Tht category (> 2 to blank = +): 0 (ThT-inactive (N-Fold <2))
[2]; ThT category, 1 if Rel. ThT >2
  ThT Cat,: 0 (ThT-inactive (N-Fold <2))
  ThT Cat.: 0 (ThT-inactive (N-Fold <2))
[2]
  ThT Cat. / ThT-Fluorescence (categorical): 0 (ThT-inactive (N-Fold <2))

## KIEIQINM
[1]; [3]
  Log10 Count Rate: 2.439
[1]
  Count Rate / kcps: 275 kcps
[1]; [4]
  Log10 Count Rate: 2.439
[1]; [5]
  Log10 Count Rate: 2.439
[2]; Fig S10 panel D
  Tht category (> 2 to blank = +): 0 (ThT-inactive (N-Fold <2))
[2]; FigS12 panel A
  Tht category (> 2 to blank = +): 0 (ThT-inactive (N-Fold <2))
[2]; FigS12 panel B
  ThT Cat,: 0 (ThT-inactive (N-Fold <2))
[2]; ThT category, 1 if Rel. ThT >2
  ThT Cat,: 0 (ThT-inactive (N-Fold <2))
[2]; [6]
  ThT Cat.: 0 (ThT-inactive (N-Fold <2))
[2]
  ThT Cat. / ThT-Fluorescence (categorical): 0 (ThT-inactive (N-Fold <2))

## CEFEFQFNMWQ
[1]; [3]
  Log10 Count Rate: 2.27
[1]
  Count Rate / kcps: 186 kcps
[1]; [4]
  Log10 Count Rate: 2.27
[1]; [5]
  Log10 Count Rate: 2.27
[2]; Fig S10 panel D
  Tht category (> 2 to blank = +): 1 (ThT. Cat is 1, if Rel. ThT >2)
[2]; Fig S10 panel E
  ThT Cat.: 1 (ThT. Cat is 1, if Rel. ThT >2)
[2]; ThT category, 1 if Rel. ThT >2
  ThT Cat,: 1 (ThT. Cat is 1, if Rel. ThT >2)
[2]; [6]
  ThT Cat.: 1 (ThT. Cat is 1, if Rel. ThT >2)
[2]
  ThT Cat. / ThT-Fluorescence (categorical): 1 (ThT. Cat is 1, if Rel. ThT >2)

## RGDSGGGGGGKIKIQIC
[1]; [3]
  Log10 Count Rate: 4.018
[1]
  Count Rate / kcps: 10416 kcps
[1]; [4]
  Log10 Count Rate: 4.018
[1]; logarithm of count rate in kcps
  Log10 Count Rate: 4.018
[1]; [5]
  Log10 Count Rate: 4.018
[2]; Fig S10 panel D
  Tht category (> 2 to blank = +): 1 (ThT. Cat is 1, if Rel. ThT >2)
[2]; Fig S10 panel E
  ThT Cat.: 1 (ThT. Cat is 1, if Rel. ThT >2)
[2]; ThT category, 1 if Rel. ThT >2
  ThT Cat,: 1 (ThT. Cat is 1, if Rel. ThT >2)
[2]; [6]
  ThT Cat.: 1 (ThT. Cat is 1, if Rel. ThT >2)
[2]
  ThT Cat. / ThT-Fluorescence (categorical): 1 (ThT. Cat is 1, if Rel. ThT >2)

## EIKIQINM
[1]; [3]
  Log10 Count Rate: 3.45
[1]
  Count Rate / kcps: 2816 kcps
[1]; [4]
  Log10 Count Rate: 3.45
[1]; [5]
  Log10 Count Rate: 3.45
[2]; Fig S10 panel D
  Tht category (> 2 to blank = +): 1 (ThT. Cat is 1, if Rel. ThT >2)
[2]; Fig S10 panel E
  ThT Cat.: 1 (ThT. Cat is 1, if Rel. ThT >2)
[2]; FigS12 panel A
  Tht category (> 2 to blank = +): 1 (ThT. Cat is 1, if Rel. ThT >2)
[2]; FigS12 panel B
  ThT Cat,: 1 (ThT. Cat is 1, if Rel. ThT >2)
[2]; ThT category, 1 if Rel. ThT >2
  ThT Cat,: 1 (ThT. Cat is 1, if Rel. ThT >2)
  ThT Cat.: 1 (ThT. Cat is 1, if Rel. ThT >2)
[2]
  ThT Cat. / ThT-Fluorescence (categorical): 1 (ThT. Cat is 1, if Rel. ThT >2)
